Earlier results on one compound are cited in article PMC12166256 (Clinical Pharmacology and Therapeutics, 2025).

The subject of this data set is P-glycoprotein (P-gp). The following applies: in vitro studies; cited from earlier work.

With `CN1C(=O)c2cccc(OC(F)F)c2[C@H]2C[C@@H]1c1nc3ccc(-c4cnc(C5(N)CCC5)nc4)cc3n12` [Balinatunfib], the “active transport by P-glycoprotein (P-gp)” value is “substrate”.
